Measurements: patent US11690854B2, “Methods of treating heavy menstrual bleeding” (priority 2018, dated 2023)

Tests used:
[1] = Drug interaction studies: co-administered drug pharmacokinetics in the presence of elagolix; conditions: for Effect of co-administration of ELAGOLIX on concentration of concomitant drug (direction of the change in AUC): established drug interactions
Procedure: (§1) Drug interaction studies were performed with ELAGOLIX and other drugs that are likely to be co-administered and with drugs commonly used as probes for pharmacokinetic interactions.

[2] = for Drugs with no observed clinically significant interactions with ELAGOLIX: co-administration with ELAGOLIX
Procedure: as §1

[3] = Ethinyl estradiol 35 mcg and triphasic norgestimate 0.18/0.215/0.25 mg once daily, elagolix 150 ms once daily, N 21

## C#C[C@]1(O)CC[C@H]2[C@@H]3CCC4=CC(=NO)CC[C@@H]4[C@H]3CC[C@@]21CC (mixture of isomers) [Norelgestromin]
[1]; [3]
  Ratio of co-administered drug AUC, with elagolix vs medication alone: 0.85
  Ratio of co-administered drug Cmax, with elagolix vs medication alone: 0.87

## C#CC1(O)CC[C@H]2[C@@H]3CCC4=CC(=O)CC[C@@H]4[C@H]3CC[C@@]21CC (mixture of isomers) [Norgestrel]
[1]; [3]
  Ratio of co-administered drug AUC, with elagolix vs medication alone: 0.92
  Ratio of co-administered drug Cmax, with elagolix vs medication alone: 0.89

## C[C@H]1O[C@@H](O[C@H]2[C@@H](O)C[C@H](O[C@H]3[C@@H](O)C[C@H](O[C@H]4CC[C@@]5(C)[C@H](CC[C@@H]6[C@@H]5C[C@@H](O)[C@]5(C)[C@@H](C7=CC(=O)OC7)CC[C@]65O)C4)O[C@@H]3C)O[C@@H]2C)C[C@H](O)[C@@H]1O [Digoxin]
[1]; Digoxin 0.5 mg single dose, elagolix 200 ms twice daily × 10 days, N 11, 90% CI 1.17-1.35
  Ratio of co-administered drug AUC, with elagolix vs medication alone: 1.26
[1]; Digoxin 0.5 mg single dose, elagolix 200 ms twice daily × 10 days, N 11, 90% CI 1.53-1.91
  Ratio of co-administered drug Cmax, with elagolix vs medication alone: 1.71
[1]
  Effect of co-administration of ELAGOLIX on concentration of concomitant drug (direction of the change in AUC): ↑ digoxin

## C#C[C@]1(O)CC[C@H]2[C@@H]3CCc4cc(O)ccc4[C@H]3CC[C@@]21C [Ethinyl Estradiol]
[1]; [3]
  Ratio of co-administered drug AUC, with elagolix vs medication alone: 1.30
  Ratio of co-administered drug Cmax, with elagolix vs medication alone: 1.15

## CC(=O)N1CCN(c2ccc(OCC3COC(Cn4ccnc4)(c4ccc(Cl)cc4Cl)O3)cc2)CC1 (centres unmarked) [Ketoconazole]
[2]
  Drugs with no observed clinically significant interactions with ELAGOLIX: No dose adjustment is required

## Cc1ncc2n1-c1ccc(Cl)cc1C(c1ccccc1F)=NC2 [Midazolam]
[1]; Midazolam 2 mg single dose, elagolix 300 mg twice daily × 11 days, N 20, 90% CI 0.41-0.50
  Ratio of co-administered drug AUC, with elagolix vs medication alone: 0.46
[1]; Midazolam 2 mg single dose, elagolix 300 mg twice daily × 11 days, N 20, 90% CI 0.51-0 62
  Ratio of co-administered drug Cmax, with elagolix vs medication alone: 0.56
[1]; Midazolam 2 mg single dose, elagolix 150 ms once daily × 13 days, N 11, 90% CI 0.58-0.72
  Ratio of co-administered drug AUC, with elagolix vs medication alone: 0.65
[1]; Midazolam 2 mg single dose, elagolix 150 ms once daily × 13 days, N 11, 90% CI 0.74-0.89
  Ratio of co-administered drug Cmax, with elagolix vs medication alone: 0.81
[1]
  Effect of co-administration of ELAGOLIX on concentration of concomitant drug (direction of the change in AUC): ↓ midazolam

## CO[C@H]1/C=C/O[C@@]2(C)Oc3c(C)c(O)c4c(O)c(c(/C=N/N5CCN(C)CC5)c(O)c4c3C2=O)NC(=O)/C(C)=C\C=C\[C@H](C)[C@H](O)[C@@H](C)[C@@H](O)[C@@H](C)[C@H](OC(C)=O)[C@@H]1C [Rifampin]
[2]; established drug interactions
  Effect of concomitant drug on elagolix (direction of the change in AUC): ↑ elagolix

## CC(C)c1nc(N(C)S(C)(=O)=O)nc(-c2ccc(F)cc2)c1/C=C/[C@@H](O)C[C@@H](O)CC(=O)O [Rosuvastatin]
[1]; Rosuvastatin 20 mg once daily, elagolix 300 mg twice daily × 7 days, N 10, 90% CI 0.50-0.71
  Ratio of co-administered drug AUC, with elagolix vs medication alone: 0.60
[1]; Rosuvastatin 20 mg once daily, elagolix 300 mg twice daily × 7 days, N 10, 90% CI 0.73-1.35
  Ratio of co-administered drug Cmax, with elagolix vs medication alone: 0.99
[1]
  Effect of co-administration of ELAGOLIX on concentration of concomitant drug (direction of the change in AUC): ↓ rosuvastatin

## CN[C@H]1CC[C@@H](c2ccc(Cl)c(Cl)c2)c2ccccc21 [sertraline]
[2]
  Drugs with no observed clinically significant interactions with ELAGOLIX: No dose adjustment is required
